{"source": "ChEMBL document CHEMBL3044779", "about": "“The action of herbicides on fatty acid biosynthesis and elongation in barley and cucumber” (Pest Manag Sci, 2010)", "key": {"Cucumis sativus [1]": {"tested_on": "Cucumis sativus", "experiment": "Inhibition of fatty acid synthesis in Cucumis sativus (cucumber) using [14C]malonate assessed as [14C]-labeled 24C fatty acid level at 100 uM after 3 hr by liquid scintillation counting (reference value: 9 +/- 2.5%)", "type": "functional", "parameters": "scale not given: the % may be the effect or the level left"}, "Hordeum vulgare [2]": {"tested_on": "Hordeum vulgare", "experiment": "Inhibition of fatty acid synthesis in Hordeum vulgare (barley) using [14C]acetate assessed as [14C]-labeled 24C fatty acid level at 100 uM after 3 hr by liquid scintillation counting (reference value: 5 +/- 0.8%)", "type": "functional", "parameters": "scale not given: the % may be the effect or the level left"}, "Acetyl-CoA carboxylase [3]": {"target": "T1, Acetyl-CoA carboxylase (Zea mays, UniProt Q3V4E6)", "T1 sequence (Q3V4E6 whole entry)": "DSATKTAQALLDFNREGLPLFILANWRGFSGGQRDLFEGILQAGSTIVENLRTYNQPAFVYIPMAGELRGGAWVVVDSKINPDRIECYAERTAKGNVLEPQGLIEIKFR", "experiment": "Inhibition of Zea mays (maize) chloroplastic ACCase using acetyl-coA as substrate assessed as inhibition of [14C]NaHCO3 incorporation into malonyl-coA incubated for 10 min prior to substrate addition measured for 20 min by liquid scintillation counting"}, "Hordeum vulgare [4]": {"tested_on": "Hordeum vulgare", "experiment": "Inhibition of fatty acid synthesis in Hordeum vulgare (barley) assessed as inhibition of [14C]malonate incoporation in total fatty acids at 100 uM measured as total disintegration per g of fresh weight after 3 hr by liquid scintillation counting (reference value: 8.8 +/- 2.4%)", "type": "functional"}, "Hordeum vulgare [5]": {"tested_on": "Hordeum vulgare", "experiment": "Inhibition of fatty acid synthesis in Hordeum vulgare (barley) using [14C]acetate assessed as [14C]-labeled 22C fatty acid level at 100 uM after 3 hr by liquid scintillation counting (reference value: 8.3 +/- 0.9%)", "type": "functional", "parameters": "scale not given: the % may be the effect or the level left"}, "Cucumis sativus [6]": {"tested_on": "Cucumis sativus", "experiment": "Inhibition of fatty acid synthesis in Cucumis sativus (cucumber) using [14C]acetate assessed as [14C]-labeled 20C fatty acid level at 100 uM after 3 hr by liquid scintillation counting (reference value: 9 +/- 0.9%)", "type": "functional", "parameters": "scale not given: the % may be the effect or the level left"}, "Cucumis sativus [7]": {"tested_on": "Cucumis sativus", "experiment": "Inhibition of fatty acid synthesis in Cucumis sativus (cucumber) using [14C]malonate assessed as [14C]-labeled 20C fatty acid level at 100 uM after 3 hr by liquid scintillation counting (reference value: 11.5 +/- 3%)", "type": "functional", "parameters": "scale not given: the % may be the effect or the level left"}, "Cucumis sativus [8]": {"tested_on": "Cucumis sativus", "experiment": "Inhibition of fatty acid synthesis in Cucumis sativus (cucumber) using [14C]malonate assessed as [14C]-labeled 18C fatty acid level at 100 uM after 3 hr by liquid scintillation counting (reference value: 22.5 +/- 2.2%)", "type": "functional", "parameters": "scale not given: the % may be the effect or the level left"}, "Hordeum vulgare [9]": {"tested_on": "Hordeum vulgare", "experiment": "Inhibition of fatty acid synthesis in Hordeum vulgare (barley) using [14C]malonate assessed as [14C]-labeled 16C fatty acid level at 100 uM after 3 hr by liquid scintillation counting (reference value: 3.1 +/- 0.6%)", "type": "functional", "parameters": "scale not given: the % may be the effect or the level left"}, "Cucumis sativus [10]": {"tested_on": "Cucumis sativus", "experiment": "Inhibition of fatty acid synthesis in Cucumis sativus (cucumber) using [14C]acetate assessed as [14C]-labeled 18C fatty acid level at 100 uM after 3 hr by liquid scintillation counting (reference value: 26.6 +/- 1.6%)", "type": "functional", "parameters": "scale not given: the % may be the effect or the level left"}, "Cucumis sativus [11]": {"tested_on": "Cucumis sativus", "experiment": "Inhibition of fatty acid synthesis in Cucumis sativus (cucumber) assessed as inhibition of [14C]malonate incoporation in total fatty acids at 100 uM measured as total disintegration per g of fresh weight after 3 hr by liquid scintillation counting (reference value: 7.6 +/- 1.6%)", "type": "functional"}, "Hordeum vulgare [12]": {"tested_on": "Hordeum vulgare", "experiment": "Inhibition of fatty acid synthesis in Hordeum vulgare (barley) using [14C]acetate assessed as [14C]-labeled 18C fatty acid level at 100 uM after 3 hr by liquid scintillation counting (reference value: 53.7 +/- 0.7%)", "type": "functional", "parameters": "scale not given: the % may be the effect or the level left"}, "Acetyl-CoA carboxylase [13]": {"target": "T1, Acetyl-CoA carboxylase", "experiment": "Inhibition of Zea mays (maize) cytosolic ACCase using acetyl-coA as substrate assessed as inhibition of [14C]NaHCO3 incorporation into malonyl-coA incubated for 10 min prior to substrate addition measured for 20 min by liquid scintillation counting"}, "Hordeum vulgare [14]": {"tested_on": "Hordeum vulgare", "experiment": "Inhibition of fatty acid synthesis in Hordeum vulgare (barley) using [14C]malonate assessed as [14C]-labeled 26C fatty acid level at 100 uM after 3 hr by liquid scintillation counting (reference value: 8.3 +/- 0.4%)", "type": "functional", "parameters": "scale not given: the % may be the effect or the level left"}, "Hordeum vulgare [15]": {"tested_on": "Hordeum vulgare", "experiment": "Inhibition of fatty acid synthesis in Hordeum vulgare (barley) using [14C]acetate assessed as [14C]-labeled 20C fatty acid level at 100 uM after 3 hr by liquid scintillation counting (reference value: 3.8 +/- 0.6%)", "type": "functional", "parameters": "scale not given: the % may be the effect or the level left"}, "Hordeum vulgare [16]": {"tested_on": "Hordeum vulgare", "experiment": "Inhibition of fatty acid synthesis in Hordeum vulgare (barley) using [14C]malonate assessed as [14C]-labeled 22C fatty acid level at 100 uM after 3 hr by liquid scintillation counting (reference value: 31.3 +/- 1.6%)", "type": "functional", "parameters": "scale not given: the % may be the effect or the level left"}, "Hordeum vulgare [17]": {"tested_on": "Hordeum vulgare", "experiment": "Inhibition of fatty acid synthesis in Hordeum vulgare (barley) using [14C]malonate assessed as [14C]-labeled 20C fatty acid level at 100 uM after 3 hr by liquid scintillation counting (reference value: 14.5 +/- 1.7%)", "type": "functional", "parameters": "scale not given: the % may be the effect or the level left"}, "Hordeum vulgare [18]": {"tested_on": "Hordeum vulgare", "experiment": "Inhibition of fatty acid synthesis in Hordeum vulgare (barley) using [14C]malonate assessed as [14C]-labeled 24C fatty acid level at 100 uM after 3 hr by liquid scintillation counting (reference value: 20 +/- 1.2%)", "type": "functional", "parameters": "scale not given: the % may be the effect or the level left"}, "Cucumis sativus [19]": {"tested_on": "Cucumis sativus", "experiment": "Inhibition of fatty acid synthesis in Cucumis sativus (cucumber) using [14C]acetate assessed as reduction in [14C]-labeled 24C fatty acid level at 100 uM after 3 hr by liquid scintillation counting relative to control", "type": "functional, organism-based"}, "Cucumis sativus [20]": {"tested_on": "Cucumis sativus", "experiment": "Inhibition of fatty acid synthesis in Cucumis sativus (cucumber) using [14C]acetate assessed as [14C]-labeled 22C fatty acid level at 100 uM after 3 hr by liquid scintillation counting (reference value: 25.5 +/- 2%)", "type": "functional", "parameters": "scale not given: the % may be the effect or the level left"}, "Hordeum vulgare [21]": {"tested_on": "Hordeum vulgare", "experiment": "Inhibition of fatty acid synthesis in Hordeum vulgare (barley) using [14C]acetate assessed as [14C]-labeled 16C fatty acid level at 100 uM after 3 hr by liquid scintillation counting (reference value: 29.2 +/- 2.1%)", "type": "functional", "parameters": "scale not given: the % may be the effect or the level left"}, "Hordeum vulgare [22]": {"tested_on": "Hordeum vulgare", "experiment": "Inhibition of fatty acid synthesis in Hordeum vulgare (barley) using [14C]malonate assessed as [14C]-labeled 18C fatty acid level at 100 uM after 3 hr by liquid scintillation counting (reference value: 22.8 +/- 2.7%)", "type": "functional", "parameters": "scale not given: the % may be the effect or the level left"}, "Cucumis sativus [23]": {"tested_on": "Cucumis sativus", "experiment": "Inhibition of fatty acid synthesis in Cucumis sativus (cucumber) using [14C]malonate assessed as [14C]-labeled 22C fatty acid level at 100 uM after 3 hr by liquid scintillation counting (reference value: 48.5 +/- 6.4%)", "type": "functional", "parameters": "scale not given: the % may be the effect or the level left"}, "Cucumis sativus [24]": {"tested_on": "Cucumis sativus", "experiment": "Inhibition of fatty acid synthesis in Cucumis sativus (cucumber) using [14C]malonate assessed as [14C]-labeled 16C fatty acid level at 100 uM after 3 hr by liquid scintillation counting (reference value: 8.5 +/- 1.4%)", "type": "functional", "parameters": "scale not given: the % may be the effect or the level left"}, "Cucumis sativus [25]": {"tested_on": "Cucumis sativus", "experiment": "Inhibition of fatty acid synthesis in Cucumis sativus (cucumber) using [14C]acetate assessed as [14C]-labeled 16C fatty acid level at 100 uM after 3 hr by liquid scintillation counting (reference value: 31.9 +/- 5%)", "type": "functional", "parameters": "scale not given: the % may be the effect or the level left"}, "Hordeum vulgare [26]": {"tested_on": "Hordeum vulgare", "experiment": "Inhibition of fatty acid synthesis in Hordeum vulgare (barley) assessed as inhibition of [14C]acetate incoporation in total fatty acids at 100 uM measured as total disintegration per g of fresh weight after 3 hr by liquid scintillation counting (reference value: 9.2 +/- 2.4%)", "type": "functional"}, "Cucumis sativus [27]": {"tested_on": "Cucumis sativus", "experiment": "Inhibition of fatty acid synthesis in Cucumis sativus (cucumber) assessed as inhibition of [14C]acetate incoporation in total fatty acids at 100 uM measured as total disintegration per g of fresh weight after 3 hr by liquid scintillation counting (reference value: 12.1 +/- 1.4%)", "type": "functional"}}, "note": "The source made the active and inactive calls. The rule behind the calls is not given here.", "data": [{"smiles": "Cc1sc(-c2ccc(Cl)cc2)nc1C1C(=O)CC2(CCCCC2)C1=O", "note": "(configuration not stated) [Spiro-decanedione A]", "values": [{"measurement": "Activity", "setting": "Cucumis sativus [1]", "value": 10, "unit": "%"}, {"measurement": "Activity", "setting": "Hordeum vulgare [2]", "value": 16.8, "unit": "%"}, {"measurement": "IC50", "setting": "Acetyl-CoA carboxylase [3]", "value": 8, "unit": "nM"}, {"measurement": "Activity", "setting": "Hordeum vulgare [4]", "value": 9.9, "unit": "×10⁶ dpm"}, {"measurement": "Activity", "setting": "Hordeum vulgare [5]", "value": 33.7, "unit": "%"}, {"measurement": "Activity", "setting": "Cucumis sativus [6]", "value": 3.4, "unit": "%"}, {"measurement": "Activity", "setting": "Cucumis sativus [7]", "value": 18.1, "unit": "%"}, {"measurement": "Activity", "setting": "Cucumis sativus [8]", "value": 20, "unit": "%"}, {"measurement": "Activity", "setting": "Hordeum vulgare [9]", "value": 0.9, "unit": "%"}, {"measurement": "Activity", "setting": "Cucumis sativus [10]", "value": 43.8, "unit": "%"}, {"measurement": "Activity", "setting": "Cucumis sativus [11]", "value": 12.7, "unit": "×10⁶ dpm"}, {"measurement": "Activity", "setting": "Hordeum vulgare [12]", "value": 20.5, "unit": "%"}, {"measurement": "IC50", "setting": "Acetyl-CoA carboxylase [13]", "value": 20, "unit": "nM"}, {"measurement": "Activity", "setting": "Hordeum vulgare [14]", "value": 8.2, "unit": "%"}, {"measurement": "Activity", "setting": "Hordeum vulgare [15]", "value": 24.4, "unit": "%"}, {"measurement": "Activity", "setting": "Hordeum vulgare [16]", "value": 31.2, "unit": "%"}, {"measurement": "Activity", "setting": "Hordeum vulgare [17]", "value": 15.8, "unit": "%"}, {"measurement": "Activity", "setting": "Hordeum vulgare [18]", "value": 25.3, "unit": "%"}, {"measurement": "inhibition", "setting": "Cucumis sativus [19]", "value": "Active"}, {"measurement": "Activity", "setting": "Cucumis sativus [20]", "value": 2.3, "unit": "%"}, {"measurement": "Activity", "setting": "Hordeum vulgare [21]", "value": 4.6, "unit": "%"}, {"measurement": "Activity", "setting": "Hordeum vulgare [22]", "value": 18.6, "unit": "%"}, {"measurement": "Activity", "setting": "Cucumis sativus [23]", "value": 43, "unit": "%"}, {"measurement": "Activity", "setting": "Cucumis sativus [24]", "value": 8.9, "unit": "%"}, {"measurement": "Activity", "setting": "Cucumis sativus [25]", "value": 50.5, "unit": "%"}, {"measurement": "Activity", "setting": "Hordeum vulgare [26]", "value": 3.6, "unit": "×10⁶ dpm"}, {"measurement": "Activity", "setting": "Cucumis sativus [27]", "value": 14.3, "unit": "×10⁶ dpm"}]}]}
